In ChEMBL document CHEMBL4706759, “Novel Substituted Pyrazines as Splicing Modulators for Modulating Splicing of mRNA and Uses Thereof for Treating Diseases” (ACS Med Chem Lett, 2021):
pEC50: −log10 of the molar value.

Assays:
SMN2 pre-mRNA [1] = assay: Modulation of SMN2 mRNA splicing in spinal muscular atrophy patient fibroblasts assessed as change in SMN protein expression measured after 48 hrs by MSD analysis; design: species or system Homo sapiens; settings: fibroblast
SMN2 pre-mRNA [2] = assay: Modulation of SMN2 mRNA splicing in spinal muscular atrophy patient fibroblasts measured after 24 hrs by TaqMan qPCR analysis; assay type: tissue-based, Homo sapiens; settings: fibroblast

Structure (SMILES): CN(c1cnc(-c2ccc(-c3cn[nH]c3)cc2O)cn1)[C@H]1C[C@@H]2CCC[C@@H](N2)[C@H]1F
- pEC50 (SMN2 pre-mRNA [1]): 11.00
- pEC50 (SMN2 pre-mRNA [2]): 7.80

Structure (SMILES): CN(c1cnc(-c2cc(F)c(-c3cn[nH]c3)cc2O)cn1)[C@H]1C[C@@H]2CC[C@@H](N2)[C@H]1F
- pEC50 (SMN2 pre-mRNA [1]): 11.00
- pEC50 (SMN2 pre-mRNA [2]): 7.80

Structure (SMILES): CN(c1cnc(-c2ccc(-c3ccn(C)c(=O)c3)cc2O)cn1)[C@@H]1C[C@H]2CCC[C@H](N2)[C@@H]1F
- pEC50 (SMN2 pre-mRNA [1]): 11.00
- pEC50 (SMN2 pre-mRNA [2]): 7.29

Structure (SMILES): CN(c1cnc(-c2ccc(-c3cn[nH]c3)cc2O)cn1)[C@H]1C[C@]2(C)CCC[C@@](C)(N2)[C@H]1F
- pEC50 (SMN2 pre-mRNA [1]): 11.00
- pEC50 (SMN2 pre-mRNA [2]): 7.80

Structure (SMILES): CN(c1cnc(-c2ccc(-c3cn[nH]c3)cc2O)cn1)[C@H]1C[C@@H]2CC[C@@](C)(N2)[C@H]1F
- pEC50 (SMN2 pre-mRNA [1]): 11.00
- pEC50 (SMN2 pre-mRNA [2]): 7.80

Structure (SMILES): CN(c1cnc(-c2ccc(-c3cn[nH]c3)cc2O)cn1)[C@H]1C[C@@H]2CC[C@@H](N2)[C@H]1F
- pEC50 (SMN2 pre-mRNA [1]): 11.00
- pEC50 (SMN2 pre-mRNA [2]): 7.80
